Reference: patent US5924973A, “Method of treating a disease process in a luminal structure” (The Trustees of Columbia University in the City of New York, priority 1996, dated 1999)

Experiments:
[1] = Dual label excretion studies of 188Re-MAG3 and 99mTc-MAG3 in rats (urine, feces); assay type: in vivo; conditions: simultaneously injected in rats
Description: Comparison of the Excretion of ^188 Re-MAG3 with ^99 mTc-MAG3 in rats
Dual Label Excretion Studies of ^188 Re-MAG3 and ^99m Tc-MAG3 in Rats

[2] = Biodistribution of 99mTc-MAG3 and 188Re-MAG3 in a dual label study, tail vein injection; assay type: in vivo, rats; conditions: ± standard deviation
Description: Biodistribution Data for ^99m Tc-MAG3 and ^188 Re-MAG3 in a dual label study

In the case of `O=C(O)C[N]1C(=O)C[N]2C(=O)C[N]3C(=O)C[S][99Tc-]132=[O]` [^99m Tc-MAG3, reference compound], the “distribution and elimination, 99mTc-MAG3 versus 188Re-MAG3” value [1] is reported as “identical”, the “Biodistribution Data for ^99m Tc-MAG3, blood” value (from here on “Biodistribution Data … blood”) ([2]; 2 h) is reported as 0.18 ± 0.02 % inj. dose/g tissue and the “Biodistribution Data … blood” value ([2]; 6 h) is reported as 0.13 ± 0.00 % inj. dose/g tissue. For the same compound, the “Biodistribution Data … blood” value ([2]; 24 h) was 0.05 ± 0.00 % inj. dose/g tissue, the “Biodistribution Data for ^99m Tc-MAG3, bone” value (“Biodistribution Data … bone” for short) ([2]; 2 h) was 0.05 ± 0.02 % inj. dose/g tissue and the “Biodistribution Data … bone” value ([2]; 6 h) was 0.03 ± 0.03 % inj. dose/g tissue. The “Biodistribution Data … bone” value ([2]; 24 h) was 0.02 ± 0.01 % inj. dose/g tissue, the “Biodistribution Data for ^99m Tc-MAG3, contents of l.i.” value (“Biodistribution Data … of l.i.” below) ([2]; 2 h) was 0.72 ± 0.18 % inj. dose/g tissue and the “Biodistribution Data … of l.i.” value ([2]; 6 h) was 1.16 ± 0.23 % inj. dose/g tissue. The “Biodistribution Data … of l.i.” value ([2]; 24 h) was 0.05 ± 0.01 % inj. dose/g tissue, the “Biodistribution Data for ^99m Tc-MAG3, contents of s.i.” value (“Biodistribution Data … of s.i.” below) ([2]; 2 h) was 1.84 ± 2.27 % inj. dose/g tissue and the “Biodistribution Data … of s.i.” value ([2]; 6 h) was 0.08 ± 0.03 % inj. dose/g tissue. The “Biodistribution Data … of s.i.” value ([2]; 24 h) was 0.02 ± 0.01 % inj. dose/g tissue, the “Biodistribution Data for ^99m Tc-MAG3, heart” value (“Biodistribution Data … heart” below) ([2]; 2 h) was 0.09 ± 0.02 % inj. dose/g tissue and the “Biodistribution Data … heart” value ([2]; 6 h) was 0.08 ± 0.01 % inj. dose/g tissue. For the same compound, the “Biodistribution Data … heart” value ([2]; 24 h) was 0.04 ± 0.00 % inj. dose/g tissue, the “Biodistribution Data for ^99m Tc-MAG3, kidneys” value (“Biodistribution Data … kidneys” below) ([2]; 2 h) was 0.61 ± 0.11 % inj. dose/g tissue and the “Biodistribution Data … kidneys” value ([2]; 6 h) was 0.43 ± 0.09 % inj. dose/g tissue. For the same compound, the “Biodistribution Data … kidneys” value ([2]; 24 h) was 0.40 ± 0.11 % inj. dose/g tissue, the “Biodistribution Data for ^99m Tc-MAG3, large intestine” value ([2]; 2 h) was 0.14 ± 0.02 % inj. dose/g tissue and the “Biodistribution Data for ^99m Tc-MAG3, large intestine” value ([2]; 6 h) was 0.18 ± 0.00 % inj. dose/g tissue. For the same compound, the “Biodistribution Data for ^99m Tc-MAG3, large intestine” value ([2]; 24 h) was 0.06 ± 0.00 % inj. dose/g tissue, the “Biodistribution Data for ^99m Tc-MAG3, liver” value (from here on “Biodistribution Data … liver”) ([2]; 2 h) was 0.15 ± 0.02 % inj. dose/g tissue and the “Biodistribution Data … liver” value ([2]; 6 h) was 0.15 ± 0.00 % inj. dose/g tissue. For the same compound, the “Biodistribution Data … liver” value ([2]; 24 h) was 0.11 ± 0.01 % inj. dose/g tissue, the “Biodistribution Data for ^99m Tc-MAG3, lung” value (“Biodistribution Data … lung” for short) ([2]; 2 h) was 0.15 ± 0.04 % inj. dose/g tissue and the “Biodistribution Data … lung” value ([2]; 6 h) was 0.07 ± 0.02 % inj. dose/g tissue. For the same compound, the “Biodistribution Data … lung” value ([2]; 24 h) was 0.04 ± 0.03 % inj. dose/g tissue, the “Biodistribution Data for ^99m Tc-MAG3, small intestine” value ([2]; 2 h) was 0.12 ± 0.04 % inj. dose/g tissue and the “Biodistribution Data for ^99m Tc-MAG3, small intestine” value ([2]; 6 h) was 0.07 ± 0.01 % inj. dose/g tissue. The “Biodistribution Data for ^99m Tc-MAG3, small intestine” value ([2]; 24 h) was 0.03 ± 0.00 % inj. dose/g tissue, the “Biodistribution Data for ^99m Tc-MAG3, spleen” value (“Biodistribution Data … spleen” below) ([2]; 2 h) was 0.06 ± 0.02 % inj. dose/g tissue and the “Biodistribution Data … spleen” value ([2]; 6 h) was 0.07 ± 0.01 % inj. dose/g tissue. For the same compound, the “Biodistribution Data … spleen” value ([2]; 24 h) was 0.06 ± 0.00 % inj. dose/g tissue, the “Biodistribution Data for ^99m Tc-MAG3, thyroid” value (“Biodistribution Data … thyroid” for short) ([2]; 2 h) was 2.41 ± 0.95 % inj. dose/g tissue and the “Biodistribution Data … thyroid” value ([2]; 6 h) was 2.43 ± 0.24 % inj. dose/g tissue. For the same compound, the “Biodistribution Data … thyroid” value ([2]; 24 h) was 0.76 ± 0.59 % inj. dose/g tissue.
